Legend:
[1] = tested on: MC38 cells; test: Cell viability assay (MTS); format: cell-based, murine; settings: (SEM)
Procedure: Cell Viability Assay. MC38 cells were seeded at 3000 cells/well in 96-well plates 24 hours before treatments. […] After 72 hour-treatment, cell viability was examined by CellTiter 96R AQueous One Solution (Promega, Madison, WI) per manufacturer protocol. The IC50 for R848 or IVM was determined by R programming.

[2] = tested on: Calreticulin, Hmgb1, Lc3b mRNA in MC38 cells; test: In vitro gene regulation by RT-qPCR; format: cell-based, murine; settings: 8 μM, 24 hours
Procedure: MC38 cells were seeded at 3×10^5 cells/well in 6-well plates 24 hours before treatments. […] R848 and IVM were both treated at 8 μM, either as free drug solution or in squalene NE. Total RNA was extracted using TRI reagent (Zymo Research) per manufacturer protocol. cDNA was prepared by high-capacity cDNA reverse transcription kit (Invitrogen, Waltham, MA, USA), and real-time qPCR (RT-qPCR) was done using SsoAdvanced™ Universal SYBRR Green Supermix (Bio-Rad Laboratories, Hercules, CA) on a QuantStudio 7 Flex Real-time PCR System. RT-qPCR primers for murine Calreticulin, Hmgb1, Lc3b, and Actb were purchased from Sigma-Aldrich. Actb was selected as the housekeeping gene control. The relative amount of RNA level was calculated and compared according to the 2-ΔΔCt method.

[3] = Saturated solubility study in squalene NE and PBS; format: physicochemical; settings: 2 mg/ml, room temperature, 24 hours
Procedure: In the saturated solubility study, R848 or IVM were dissolved in PBS or formulated in NE at 2 mg/ml and incubated at room temperature for 24 hours. Insoluble solid drugs were pelleted down by centrifugation. Supernatants were collected for concentration analysis. R848 concentrations were quantified by UV-Vis spectrometry at 320 nm using a NanoDrop 2000 spectrophotometer. IVM concentrations were quantified by high-performance liquid chromatography (HPLC) using an isocratic mobile phase composed of water/methanol/acetonitrile (8:36:56, v/v/v), an C18 column (Kromasil 150-C-18, 4.6×150 mm), and PDA detection at 230 nm.

SMILES	IC50 ([1]; 72 hours) [µM]	Calreticulin mRNA level [2]	Increase of solubility in squalene-based NE compared with PBS [3] [fold]	IC50 ([1]; Mus musculus, MC-38, 72 hours) [µM]
CC[C@H](C)[C@H]1O[C@]2(CC[C@@H]1C)C[C@@H]1C[C@@H](C/C=C(\C)[C@@H](O[C@H]3C[C@H](OC)[C@@H](O[C@H]4C[C@H](OC)[C@@H](O)[C@H](C)O4)[C@H](C)O3)[C@@H](C)/C=C/C=C3\CO[C@@H]4[C@H](O)C(C)=C[C@@H](C(=O)O1)[C@]34O)O2 [IVM]	10.9 ± 4.15	did not show significant Calreticulin regulation	100	–
CCOCc1nc2c(N)nc3ccccc3c2n1CC(C)(C)O [R848, 4-amino-2-ethoxymethyl-α, α-dimethyl-1H-imidazol[4,5-c]quinoli-ne-1-ethanol]	–	–	2	> 100

Reference: patent US20240417738A1, “IMMUNOTHERAPIES FOR THE TREATMENT OF CANCER” (Ohio State Innovation Foundation, priority 2021, published 2024)
